Source: the supplement of paper PMC10307832

How the values were obtained:
Assay in all cases: relative viability (nuclei count vs DMSO), 5 days (fraction); higher = more cells survive
[1] = compound: CCCS(=O)(=O)Nc1ccc(F)c(C(=O)c2c[nH]c3ncc(-c4ccc(Cl)cc4)cc23)c1F [Vemurafenib] + Cc1nc(NC(=O)N2CCC[C@H]2C(N)=O)sc1-c1ccnc(C(C)(C)C(F)(F)F)c1 [Alpelisib] (partner 2 µM)
Method in brief: (§1)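 Lung cancer cell lines were seeded in 1536-well plates and dosed by pin tool the next day, with either a single drug or a fixed anchor-drug dose combined with five library-drug doses (not always all listed) spaced in √10 steps. Five days later, one step fixed the cells and stained their nuclei (final 0.05% Triton X-100, 1% formaldehyde, 1 ug/ml Hoechst), and nuclei were counted on 4× images. Relative viability is the nuclei count in treated wells divided by the count in vehicle wells, and each value is the median of duplicate plates.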

[2] = compound: CCCS(=O)(=O)Nc1ccc(F)c(C(=O)c2c[nH]c3ncc(-c4ccc(Cl)cc4)cc23)c1F [Vemurafenib] + CCNC(=O)c1noc(-c2cc(C(C)C)c(O)cc2O)c1-c1ccc(CN2CCOCC2)cc1 [Luminespib] (partner 0.01 µM)
Method in brief: as §1

[3] = compound: COc1cccc2cc(-c3nc([C@H]4CC[C@H](C(=O)O)CC4)n4ncnc(N)c34)[nH]c12 [OSI-027] + CC1(C)CCC(c2ccc(Cl)cc2)=C(CN2CCN(c3ccc(C(=O)NS(=O)(=O)c4ccc(N[C@H](CCN5CCOCC5)CSc5ccccc5)c(S(=O)(=O)C(F)(F)F)c4)cc3)CC2)C1 [Navitoclax] (partner 0.5 µM)
Method in brief: as §1

[4] = compound: COc1cccc2cc(-c3nc([C@H]4CC[C@H](C(=O)O)CC4)n4ncnc(N)c34)[nH]c12 [OSI-027] + Cc1cc(Nc2cc(N3CCN(C)CC3)nc(Sc3ccc(NC(=O)C4CC4)cc3)n2)n[nH]1 [Tozasertib] (partner 0.1 µM)
Method in brief: as §1

Row | Cell Line | relative viability ([1]; first compound 0.03162 µM) | relative viability ([1]; first compound 0.1 µM) | relative viability ([1]; first compound 0.3162 µM) | relative viability ([1]; first compound 1 µM) | relative viability ([2]; first compound 0.03162 µM) | relative viability ([2]; first compound 0.1 µM) | relative viability ([2]; first compound 0.3162 µM) | relative viability ([2]; first compound 1 µM) | relative viability ([3]; first compound 0.01 µM) | relative viability ([3]; first compound 0.03162 µM) | relative viability ([3]; first compound 0.1 µM) | relative viability ([3]; first compound 0.3162 µM) | relative viability ([3]; first compound 1 µM) | relative viability ([4]; first compound 0.01 µM) | relative viability ([4]; first compound 0.03162 µM) | relative viability ([4]; first compound 0.1 µM) | relative viability ([4]; first compound 0.3162 µM) | relative viability ([4]; first compound 1 µM)
1 | A-427 | 1.02 | 1.09 | 1.11 | 1.14 | 0.846 | 0.919 | 0.627 | 0.87 | 0.974 | 0.873 | 0.837 | 0.603 | 0.696 | 0.231 | 0.201 | 0.159 | 0.219 | 0.192
2 | NCI-H1703 | 0.353 | 0.318 | 0.292 | 0.301 | – | – | – | – | 0.864 | 1.11 | 0.991 | 0.625 | 0.512 | – | – | – | – | –
3 | HCC-366 | 0.417 | 0.391 | – | 0.379 | – | – | – | – | 1.05 | 1.14 | 1.06 | 1.05 | 0.287 | 0.13 | 0.113 | 0.0867 | 0.128 | 0.0744
4 | NCI-H661 | 0.43 | 0.478 | 0.409 | 0.58 | 0.979 | 0.806 | 0.897 | 0.953 | – | – | – | – | – | 0.357 | 0.374 | 0.362 | 0.344 | 0.351
5 | NCI-H2126 | 0.718 | 0.709 | 0.758 | 0.789 | 0.847 | 0.905 | – | 0.972 | 0.885 | 0.856 | 0.818 | 0.679 | 0.801 | 0.811 | 0.848 | 0.725 | 0.745 | 0.538
6 | LCLC-97TM1 | 0.26 | 0.233 | 0.275 | 0.262 | 0.811 | 0.768 | 0.807 | 0.817 | 0.36 | 0.331 | 0.381 | 0.214 | 0.159 | 0.299 | 0.192 | 0.228 | 0.18 | 0.0982
7 | NCI-H2405 | 0.708 | 0.675 | – | 0.785 | 0.667 | 0.625 | – | 0.576 | 0.858 | 0.791 | 0.768 | 0.636 | 0.384 | 0.754 | 0.715 | 0.76 | 0.79 | 0.467
8 | COR-L 105 | 0.936 | – | 1.11 | 0.839 | 0.738 | – | – | 0.935 | 0.899 | 0.782 | 0.886 | 0.636 | 0.429 | 0.335 | 0.336 | 0.374 | 0.371 | 0.411
9 | BEN | 0.966 | 0.98 | 0.793 | 0.784 | 0.382 | 0.302 | – | 0.274 | 0.0799 | 0.0753 | 0.0684 | 0.0639 | 0.0589 | 0.566 | 0.625 | 0.469 | 0.529 | 0.383
10 | HCC-827 | 0.959 | – | 1.01 | 0.9 | 0.654 | – | 0.537 | 0.669 | 1.07 | 1.06 | 0.995 | 0.996 | 0.651 | 0.447 | 0.478 | 0.456 | 0.343 | 0.363
11 | NCI-H3122 | 0.814 | 0.761 | 0.896 | 0.862 | 0.138 | 0.123 | 0.0825 | 0.101 | 1.03 | 1.14 | 1.13 | 1.03 | 0.334 | 0.542 | 0.38 | 0.385 | 0.434 | 0.287
12 | NCI-H1299 | 1.05 | 1.05 | 0.928 | 0.985 | – | – | – | – | 1.07 | 1.05 | 1.08 | 1.1 | 1 | – | – | – | – | –
13 | LK-2 | 1.07 | 1.07 | 1.22 | 0.706 | 0.19 | 0.188 | 0.131 | 0.181 | 0.774 | 0.781 | 0.69 | 0.372 | 0.238 | 0.186 | 0.188 | 0.144 | 0.162 | 0.145
14 | HCC-15 | 0.864 | 0.892 | 0.874 | 0.881 | 0.203 | 0.484 | 0.16 | 0.315 | 0.713 | 0.689 | 0.676 | 0.611 | 0.374 | 0.458 | 0.4 | 0.429 | 0.414 | 0.266
15 | IA-LM | 0.824 | 0.81 | 0.777 | 0.548 | – | – | – | – | 0.873 | 0.572 | 0.481 | 0.182 | 0.0688 | – | – | – | – | –
16 | NCI-H1755 | 0.906 | 0.83 | 0.869 | 0.791 | 0.442 | 0.574 | 0.332 | 0.462 | 1.01 | 0.968 | 0.988 | 0.753 | 0.279 | 0.532 | 0.559 | 0.524 | 0.484 | 0.409
17 | EMC-BAC-2 | 0.704 | 0.657 | 0.704 | 0.698 | 1.08 | 1.03 | 1.19 | 1.22 | 1.17 | 1.05 | 1.12 | 1.06 | 0.436 | 0.281 | 0.284 | 0.254 | 0.287 | 0.24
18 | NCI-H838 | 0.879 | 0.957 | – | 1.04 | 0.291 | 0.349 | – | 0.352 | 0.981 | 0.998 | 0.853 | 0.501 | 0.276 | 0.307 | 0.482 | 0.264 | 0.26 | 0.214
19 | NCI-H1650 | – | – | – | – | – | 0.205 | – | 0.215 | 1.21 | 1.47 | 1.11 | 1.29 | 0.459 | 0.454 | 0.347 | 0.36 | 0.424 | 0.355
20 | NCI-H1975 | 0.582 | 0.608 | 0.526 | 0.629 | 0.295 | 0.219 | – | 0.287 | 1.19 | 1.11 | 1.16 | 1.02 | 0.508 | 1 | 0.778 | 0.746 | 0.66 | 0.478
21 | NCI-H522 | – | – | – | – | 0.96 | 1.14 | – | 1.13 | – | – | – | – | – | 0.536 | 0.625 | 0.524 | 0.522 | 0.431
